Reference: patent US10562909B2, “Fused quadracyclic compounds, compositions and uses thereof” (Tabomedex Biosciences, LLC, priority 2016, dated 2020)

Target: MAPKAPK2 (Homo sapiens, UniProt P49137)
Experiment: MK2 Enzymatic Assay
Format: biochemical
Settings: 0.5 nM MAPKAPK2, 3 μM ATP, 2 μM Ser/Thr4 peptide, 23° C., values given as concentration bins
Method in brief: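 MAPKAPK2 (2× stock 1 nM) and peptide substrate (2× 4 μM) were preincubated 20 min, then started with ATP (2× stock 6 μM) for 120 min. After 120 min development, coumarin/fluorescein emission ratio gave percent phosphorylation against 0% and 100% phosphopeptide controls.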

Sequence of MAPKAPK2 (P49137 whole entry, species assumed): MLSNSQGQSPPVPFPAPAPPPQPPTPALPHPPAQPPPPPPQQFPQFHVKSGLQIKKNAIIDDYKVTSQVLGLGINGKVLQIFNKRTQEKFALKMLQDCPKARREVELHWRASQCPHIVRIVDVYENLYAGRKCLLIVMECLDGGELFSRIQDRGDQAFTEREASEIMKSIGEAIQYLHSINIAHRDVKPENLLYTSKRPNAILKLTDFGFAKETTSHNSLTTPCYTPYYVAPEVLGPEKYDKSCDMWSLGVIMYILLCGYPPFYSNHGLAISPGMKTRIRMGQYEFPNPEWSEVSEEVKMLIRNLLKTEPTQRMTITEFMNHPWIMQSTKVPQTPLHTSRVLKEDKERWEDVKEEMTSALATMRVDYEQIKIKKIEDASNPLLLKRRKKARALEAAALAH

| IC50 [nM] | SMILES |
| --- | --- |
| 100 to 200 | CN(C)C[C@@H]1CN(c2ccc3c(c2)Cn2cc(-c4ccc(F)cc4)cc2-c2ncnn2-3)C[C@@H]1F [Compound 500, 1-((3R,4R)-4-fluoro-1-(12-(4-fluorophenyl)-9H-benzo[e]pyrrolo[1,2-a][1,2,4]triazolo[5,1-c] [1,4]diazepin-7-yl)pyrrolidin-3-yl)-N,N-dimethylmethanamine] |
| 100 to 200 | OC[C@@H]1CN(c2ccc3c(c2)Cn2cc(-c4ccc(F)cc4)cc2-c2nccn2-3)C[C@H]1O [Compound 485, (3S,4S)-1-(12-(4-fluorophenyl)-9H-benzo[e]imidazo[2,1-c]pyrrolo[1,2-a][1,4]diazepin-7-yl)-4-(hydroxymethyl)pyrrolidin-3-ol] |
| < 50 | CN(C)C[C@H]1CN(c2ccc3c(c2)Cn2cc(-c4ccc(F)cc4)cc2-c2nccn2-3)C[C@H]1F [Compound 467, 1-((3S,4S)-4-fluoro-1-(12-(4-fluorophenyl)-9H-benzo[e]imidazo[2,1-c]pyrrolo[1,2-a][1,4]diazepin-7-yl)pyrrolidin-3-yl)-N,N-dimethylmethanamine] |
| < 50 | CNC[C@@H]1CN(c2ccc3c(c2)Cn2cc(-c4ccc(F)cc4)cc2-c2nccn2-3)C[C@H]1O [Compound 364, (3S,4R)-1-(12-(4-fluorophenyl)-9H-benzo[e]imidazo[2,1-c]pyrrolo[1,2-a][1,4]diazepin-7-yl)-4-((methylamino)methyl)pyrrolidin-3-ol] |
| 100 to 200 | CN(C)[C@H]1CN(c2ccc3c(n2)Cn2cc(-c4ccc(C#N)cc4)cc2-c2nccn2-3)C[C@@H]1O [Compound 301, 4-(7-((3S,4S)-3-(dimethylamino)-4-hydroxypyrrolidin-1-yl)-9H-imidazo[2,1-c]pyrido[3,2-e]pyrrolo[1,2-a][1,4]diazepin-12-yl)benzonitrile] |
| 50 to 100 | CN(C)[C@@H]1CN(c2ccc3c(n2)Cn2cc(-c4ccc(F)cc4)cc2-c2nccn2-3)C[C@@H]1O [Compound 433, (3S,4R)-4-(dimethylamino)-1-(12-(4-fluorophenyl)-9H-imidazo[2,1-c]pyrido[3,2-e]pyrrolo[1,2-a][1,4]diazepin-7-yl)pyrrolidin-3-ol] |
| < 50 | CN(C)[C@@H]1CN(c2ccc3c(c2)Cn2cc(-c4ccc(F)cc4)cc2-c2nccn2-3)C[C@@H]1O [Compound 353, (3S,4R)-4-(dimethylamino)-1-(12-(4-fluorophenyl)-9H-benzo[e]imidazo[2,1-c]pyrrolo[1,2-a] [1,4]diazepin-7-yl)pyrrolidin-3-ol] |
| 100 to 200 | CN(C)[C@H]1CN(c2ccc3c(c2)Cn2cc(-c4ccc(F)cc4)cc2-c2ncnn2-3)C[C@@H]1O [Compound 418, (3S,4S)-4-(dimethylamino)-1-(12-(4-fluorophenyl)-9H-benzo[e]pyrrolo[1,2-a][1,2,4]triazolo[5,1-c][1,4]diazepin-7-yl)pyrrolidin-3-ol] |
| < 50 | CNC[C@@H]1CCN(c2ccc3c(c2)Cn2cc(-c4ccc(C#N)cc4)cc2-c2ncnn2-3)C1 [Compound 262, (S)-4-(7-(3-((methylamino)methyl)pyrrolidin-1-yl)-9H-benzo[e]pyrrolo[1,2-a][1,2,4]triazolo[5,1-c][1,4]diazepin-12-yl)benzonitrile] |
| < 50 | CNCC[C@H]1CN(c2ccc3c(c2)Cn2cc(-c4ccc(F)cc4)cc2-c2nccn2-3)C[C@@H]1O (relative stereo) [Compound 493, Trans-1-(12-(4-fluorophenyl)-9H-benzo[e]imidazo[2,1-c]pyrrolo[1,2-a][1,4]diazepin-7-yl)-4-(2-(methylamino)ethyl)pyrrolidin-3-ol] |
| < 50 | CN(C)C[C@H]1CN(c2ccc3c(c2)Cn2cc(-c4ccc(F)cc4)cc2-c2ncnn2-3)C[C@@H]1O [Compound 421, (3R,4S)-4-((dimethylamino)methyl)-1-(12-(4-fluorophenyl)-9H-benzo[e]pyrrolo[1,2-a][1,2,4]triazolo[5,1-c][1,4]diazepin-7-yl)pyrrolidin-3-ol] |
